Assay results: patent US10624829B2, “VEGFC production promoter” (Shiseido Company, Ltd., priority 2012, dated 2020)

Tests used:
VEGFC = test: VEGFC-inducing activity in HaCaT cells (VEGF-C ELISA of culture supernatant, normalised to cell number); type: cell-based, human; settings: aromatic final concentration 0.001% to 0.01%, 48 hours culture, ELISA of supernatant divided by alamar blue fluorescence, values only in FIG. 1
Method: As is described in detail in the subsequent examples, screening for agents that induce a lymph vessel activating factor in the form of VEGFC was carried out by allowing various types of candidate aromatics to act on human epidermis-derived cultured cells in the form of HaCaT cells, quantifying VEGFC, and selecting aromatics having VEGFC-inducing activity as active ingredients by using the amount of VEGFC as an indicator of VEGFC-inducing activity.
Human-derived cultured cells in the form of HaCaT cells (German Cancer Research Center, Heidelberg, Germany) were cultured in DMEM medium (Gibco Low Glucose DMEM™, Life Technologies Inc.) containing 10% FBS (Standard Fetal Bovine Serum, Hyclone Laboratories Inc.) and disseminated in a 24-well plate to 15×10^4 cells/well. The medium was replaced with serum-free DMEM 24 hours after dissemination followed by culturing for 24 hours. […] The culture supernatant was recovered after culturing for 48 hours and the amount of VEGFC in the culture supernatant was quantified in accordance with the protocol of an ELISA kit (Quanikine® Human VEGF-C Immunoassay (R&D Systems Inc., Minneapolis, Minn.)). In addition, alamar blue (TREK Diagnostic Systems, Inc., Cleveland, US) was added to the cells after recovering the culture supernatant followed by measuring the number of cells based on their fluorescence intensity (Ex: 544 nm, Em: 590 nm). […]

HaCaT cells = test: Cytotoxicity / cell number by alamar blue fluorescence in HaCaT cells; type: cell-based, human; settings: aromatic final concentration 0.001% to 0.01%, 48 hours, alamar blue (Ex: 544 nm, Em: 590 nm)
Method: Human-derived cultured cells in the form of HaCaT cells (German Cancer Research Center, Heidelberg, Germany) were cultured in DMEM medium (Gibco Low Glucose DMEM™, Life Technologies Inc.) containing 10% FBS (Standard Fetal Bovine Serum, Hyclone Laboratories Inc.) and disseminated in a 24-well plate to 15×10^4 cells/well. The medium was replaced with serum-free DMEM 24 hours after dissemination followed by culturing for 24 hours. Subsequently, each aromatic dissolved in ethanol was added (aromatic final concentration: 0.001% to 0.01%). Ethanol was used as a control. The culture supernatant was recovered after culturing for 48 hours and the amount of VEGFC in the culture supernatant was quantified in accordance with the protocol of an ELISA kit (Quanikine® Human VEGF-C Immunoassay (R&D Systems Inc., Minneapolis, Minn.)). In addition, alamar blue (TREK Diagnostic Systems, Inc., Cleveland, US) was added to the cells after recovering the culture supernatant followed by measuring the number of cells based on their fluorescence intensity (Ex: 544 nm, Em: 590 nm). The amount of VEGFC in the supernatant was divided by fluorescence intensity, and the relative VEGFC-inducing activity per cell based on a value of 100 for the control (ethanol) is shown in FIG. 1.

## CC(=O)OCCC(C)CCC=C(C)C (stereo not shown) [citronellyl acetate, Citronellyl acetate]
VEGFC
  relative VEGFC-inducing activity per cell based on a value of 100 for the control (ethanol): demonstrated VEGFC-inducing activity
HaCaT cells
  cytotoxicity: without demonstrating cytotoxicity

## CC(C)=CC1CC(C)CCO1 (stereo not shown) [rose oxide, Rose oxide]
VEGFC
  relative VEGFC-inducing activity per cell based on a value of 100 for the control (ethanol): demonstrated VEGFC-inducing activity
HaCaT cells
  cytotoxicity: without demonstrating cytotoxicity
